Measurements from EP0437336B1, “Biophosphoryl hydrazines and their use as pesticides” (priority 1990, dated 1991).
≈ marks a conversion by molar mass, not a printed value. Like-named read-outs stand apart in the source and are kept apart here.

Columns and labels:
Two-Spotted Spider Mite = test: Biological Method D: Foliar Insecticidal Activity Test, mite test; type: in vivo, Tetranychus urticae; design: key to LC50 TSM: I = inactive at concentration listed; conditions: Method D foliar test, Two-Spotted Spider Mite; for LC50: Tetranychus urticae, read-out: LC50 TSM
Boll Weevil [1] = test: Biological Method D: Foliar Insecticidal Activity Test, boll weevil test; type: in vivo, Anthonomous grandis; design: key: I = inactive at concentration listed
Green Peach Aphid = test: Biological Method D: Foliar Insecticidal Activity Test, aphid test; type: in vivo, Myzus persicae; design: key: I = inactive at concentration listed
[2] = test system: southern corn rootworm, Diabrotica undecimpunctata howardi; test: Biological Method A: Corn Rootworm Screening Test (treated non-aggressive soil); conditions: soil concentration giving 90% mortality, 10 days at 27°C
Southern Armyworm = test: Biological Method D: Foliar Insecticidal Activity Test, Southern Armyworm test; type: in vivo, Spodoptera eridania; design: key: I = inactive at concentration listed
Mexican Bean Beetle = test: Biological Method D: Foliar Insecticidal Activity Test, Mexican Bean Beetle test; type: in vivo, Epilachna varivestis; conditions: Epilachna varivestis, Method D foliar test, Mexican Bean Beetle
[3] = test system: southern corn rootworm, Diabrotica undecimpunctata howardi; conditions: at-planting soil application
[4] = test system: southern corn rootworm, Diabrotica undecimpunctata howardi; conditions: for pest or weed control at 560 g/ha: Diabrotica undecimpunctata, in Zea mays, foliar, 336 h, read-out: foliar systemic nonagressive Method B crw % control at 0.56 kg/ha (0.5 lb/acre); for foliar systemic nonagressive Method B crw % control at 0.56 kg/ha (0.5 lb/acre): percent control relative to infested check, from root damage ratings, 14 days post-spraying
Boll Weevil [5] = test: Biological Method D: Foliar Insecticidal Activity Test, boll weevil test; type: in vivo, Anthonomous grandis; conditions: Method D foliar test, Boll Weevil
[6] = 48 hrs, read-out: LC50 BB 48 hrs.
[7] = 96 hrs, read-out: LC50 BB 96 hrs

Row | SMILES | LC50 TSM (Two-Spotted Spider Mite) | LC50 BW 48 hrs (Boll Weevil [1]) | LC50 BW 96 hrs (Boll Weevil [1]) | LC50 GPA (Green Peach Aphid) | primary nonagressive Method A crw LC90 [2] | LC50 AW 48 hrs (Southern Armyworm) | LC50 AW 96 hrs (Southern Armyworm) | LC50 (Mexican Bean Beetle; [6]) | LC50 (Mexican Bean Beetle; [7]) | secondary aggressive Method C crw LC50 ([3]; rated 17 days post-infestation) | secondary aggressive Method C crw LC50 ([3]; value in brackets) | pest or weed control at 560 g/ha [4] | foliar systemic nonagressive Method B crw % control at 0.56 kg/ha (0.5 lb/acre) [4] | LC50 (Two-Spotted Spider Mite) | LC50 BW 96 hrs (Boll Weevil [5]) | LC50 BW 48 hrs (Boll Weevil [5]; 48 hrs)
1 | CCCCOP(=S)(NNP(=S)(OCCC)OCCC)OCC (stereo not shown) [Compound 17] | I | I | I | I | 1.1 ppm | I | I | 150 µg/mL (≈ 382 µM) | 62 µg/mL (≈ 158 µM) | 1.02 kg/ha | 0.91 lb/acre | 38% |  |  |  | 
2 | CCOP(=S)(NNP(=S)(OCC)SC(C)C)OCC (stereo not shown) [Compound 20] | I | I | I | I | 0.40 ppm | I | I | 110 µg/mL (≈ 300 µM) | 52 µg/mL (≈ 142 µM) | 1.01 kg/ha | 0.90 lb/acre |  | 50% |  |  | 
3 | CCCOP(=S)(NNP(=S)(OCC)OC(C)CC)OCCC (stereo not shown) [Compound 19, N-(O,O-dipropylthiophosphoryl) N′-(O-ethyl O-secbutylthiophosphoryl) hydrazine] | I | I | I | I | <0.1 ppm | I | I | 78 µg/mL (≈ 199 µM) | 62 µg/mL (≈ 158 µM) | 0.28 kg/ha | 0.25 lb/acre | 54% |  |  |  | 
4 | CCOP(=S)(NNP(=S)(OC(C)C)OC(C)C)OCC [Compound 9, reference compound] |  | I | I | I | 0.41 ppm | I | I | 300 µg/mL (≈ 823 µM) | 150 µg/mL (≈ 412 µM) | 1.1 kg/ha | 0.98 lb/acre |  | 64% | 76 µg/mL (≈ 209 µM) |  | 
5 | CCOP(=S)(NNP(=S)(OCC)OC(C)CC)OCC (stereo not shown) [Compound 8] |  | I |  | I | <0.1 ppm | I | I | 500 µg/mL (≈ 1370 µM) | 84 µg/mL (≈ 231 µM) | 0.81 kg/ha | 0.72 lb/acre |  | 53% | 335 µg/mL (≈ 919 µM) | 740 ppm | 
6 | CCCNP(=S)(NNP(=S)(OCC)OCC)OCC (stereo not shown) [Compound 24] | I | I |  | I | 1.1 ppm | I | I | 27 µg/mL (≈ 77.3 µM) | 31 µg/mL (≈ 88.7 µM) |  |  |  | 38% |  | 380 ppm | 
7 | C=CCOP(=S)(NNP(=S)(OCC)OCC)OCC (stereo not shown) [Compound 10] |  | I | I | I | 0.79 ppm | I | I |  | 78 µg/mL (≈ 224 µM) |  |  |  | 34% | 510 µg/mL (≈ 1460 µM) |  | 
8 | CCOP(=S)(NNP(=S)(OCC)OC(C)C)OCC (stereo not shown) [Compound 5] |  | I | I | I | <0.1 ppm | I | I | 740 µg/mL (≈ 2110 µM) |  |  |  |  | 69% | 150 µg/mL (≈ 428 µM) |  | 
9 | CCCOP(=S)(NNP(=S)(OCC)OCC(C)C)OCCC (stereo not shown) [Compound 18, N-(O,O-dipropylthiophosphoryl) N′-(O-ethyl O-isobutylthiophosphoryl) hydrazine] | I | I | I | I | <0.1 ppm | I | I | 150 µg/mL (≈ 382 µM) | 78 µg/mL (≈ 199 µM) | 0.36 kg/ha | 0.32 lb/acre | 61% |  |  |  | 
10 | CCOP(=S)(NNP(=S)(OCC)OCC(C)C)OCC (stereo not shown) [Compound 11, N-(O,O-diethylthiophosphoryl) N′-(O-ethyl O-isobutylthiophosphoryl) hydrazine] | I | I |  | I | <0.1 ppm | I | I | 150 µg/mL (≈ 412 µM) | 60 µg/mL (≈ 165 µM) | 0.36 kg/ha | 0.32 lb/acre |  | 53% |  | 740 ppm | 
11 | CCCOP(=S)(NNP(=S)(OCCC)OCCC)OCCC [Compound 14, reference compound] | I | I | I | I | 0.39 ppm | I | I | 500 µg/mL (≈ 1270 µM) | 52 µg/mL (≈ 132 µM) | 1.12 kg/ha | 1.0 lb/acre | 46% |  |  |  | 
12 | CCCOP(=S)(NNP(=S)(OCC)OCC)OCC (stereo not shown) [Compound 6] |  | I | I | I | <0.1 ppm | I | I | 420 µg/mL (≈ 1200 µM) |  |  |  |  | 3% | 150 µg/mL (≈ 428 µM) |  | 
13 | CCOP(=S)(NNP(=S)(OCC)OCC(C)(C)C)OCC (stereo not shown) [Compound 38, N-(O,O-diethylthiophosphoryl) N′-(O-ethyl O-neopentylthiophosphoryl) hydrazine] |  |  |  | I | 0.07 ppm | I | I | 60 µg/mL (≈ 159 µM) | 60 µg/mL (≈ 159 µM) | 0.5 kg/ha | 0.45 lb/acre | 46% |  | 150 µg/mL (≈ 396 µM) | 740 ppm | 740 ppm
14 | CCCOP(=S)(NNP(=S)(OC(C)C)OC(C)C)OCCC [Compound 16, reference compound] | I | I | I | I | 0.95 ppm | I | I | 150 µg/mL (≈ 382 µM) | 62 µg/mL (≈ 158 µM) | 1.03 kg/ha | 0.92 lb/acre | 46% |  |  |  | 
